Test systems include M14; SK-MEL-28; UACC-257; SF-539; DU-145; CCRF-CEM; NCI-H522; HCT-116; BT-549; PC-3; RPMI-8226; HOP-92; TK-10; OVCAR-5; RXF 393; SN12C; U-251; COLO 205; SR.
Common to all, as to assay: NCI-60 cell line screen, 48 h

The results in this text go back to ChEMBL document CHEMBL1201862, “PubChem BioAssay data set” (2004).

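Method: 48-hour compound exposure of cells in 96-well plates, five concentrations, linear interpolation of endpoints. GI50 = concentration required for 50% inhibition of growth.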 Activity calls are given as the source filed them. Rule as the data show it: active = GI50 up to about 1.1 µM and inactive = higher.

For the compound `COc1ccc(CN(CCc2c[nH]c3ccccc23)Cc2ccc(OC)cc2)cc1`, the GI50 in the assay with M14 was 2.8 µM (inactive); in the assay with SK-MEL-28, 3.86 µM (inactive); in the assay on UACC-257, 3.8 µM (inactive); in the assay with SF-539, 1.56 µM (inactive); in the assay on DU-145, 4.65 µM (inactive); in the assay with CCRF-CEM, 6.67 µM (inactive). Besides, the GI50 with NCI-H522 was 2.88 µM (inactive); with HCT-116 it was 0.83 µM (active); with BT-549, 5.71 µM (inactive); with PC-3, 3.66 µM (inactive); with RPMI-8226 it was 3.82 µM (inactive); in the assay with HOP-92, 3.29 µM (inactive). The GI50 in the assay on TK-10 was 1.29 µM (inactive); with OVCAR-5, 3.64 µM (inactive); with RXF 393, 4.69 µM (inactive); in the assay with SN12C, 0.968 µM (active); with U-251 it was 5.81 µM (inactive); with COLO 205, 2.04 µM (inactive). In the assay with SR, the GI50 was 7.57 µM (inactive).

With `COC(=O)c1c(O)c(C#N)c2[nH]c3ccccc3n2c1=O`, the GI50 in the assay on M14, with UACC-257, in the assay with SF-539, with DU-145, in the assay on CCRF-CEM and in the assay with NCI-H522 was > 100 µM (inactive) throughout. Further, the GI50 in the assay with HCT-116, with BT-549, with PC-3, in the assay on RPMI-8226, with HOP-92 and in the assay on TK-10 was > 100 µM (inactive) in each case. Further, the GI50 with OVCAR-5, with RXF 393, in the assay on SN12C, in the assay on U-251, in the assay on COLO 205 and in the assay with SR was > 100 µM (inactive) each time.

As for `CCCCCC(=O)OC[n+]1ccc(-c2c(COC(=O)NC(C)C)c(COC(=O)NC(C)C)c3n2CCC3)cc1`, the GI50 was > 100 µM (inactive) in the assay with M14; > 100 µM (inactive) in the assay on SK-MEL-28; > 100 µM (inactive) in the assay on UACC-257; > 100 µM (inactive) in the assay on SF-539; > 35.5 µM (inactive) with DU-145; 43.2 µM (inactive) with CCRF-CEM. Further, the GI50 with NCI-H522, in the assay with HCT-116, in the assay with BT-549, in the assay on PC-3, in the assay with RPMI-8226 and with HOP-92 was > 100 µM (inactive) each time. Further, the GI50 with TK-10, with OVCAR-5, in the assay with RXF 393, in the assay with SN12C, in the assay on U-251 and with COLO 205 was > 100 µM (inactive) each time. In addition, the GI50 in the assay on SR was 16.9 µM (inactive).

For `CC(C)(C)OC(=O)NCC(c1c[nH]c2ccccc12)c1c[nH]c2ccccc12`, the GI50 in the assay with M14 is 14.9 µM (inactive); in the assay with SK-MEL-28, 18.1 µM (inactive); in the assay with UACC-257 it was 15.1 µM (inactive); in the assay on SF-539, 17.7 µM (inactive); in the assay with DU-145, 15.6 µM (inactive); with CCRF-CEM, 14.6 µM (inactive). For the same compound, the GI50 with NCI-H522 is 18.2 µM (inactive); with HCT-116 it was 16 µM (inactive); in the assay with BT-549, 18.9 µM (inactive); with PC-3 it was 15.8 µM (inactive); in the assay with RPMI-8226, 6.62 µM (inactive); with HOP-92, 13.1 µM (inactive). Moreover, the GI50 with TK-10 is 15.5 µM (inactive); in the assay with OVCAR-5, 16.9 µM (inactive); in the assay on RXF 393, 4.56 µM (inactive); in the assay on SN12C, 16.7 µM (inactive); with U-251, 16.1 µM (inactive); with COLO 205, 14.6 µM (inactive). For the same compound, the GI50 with SR is 14.9 µM (inactive).

In the case of `Nc1c(-c2cccc3ccccc23)c2ccc([N+](=O)[O-])cc2c(=O)n1-c1nc2ccccc2s1`, the GI50 was 11.7 µM (inactive) with M14; 14.1 µM (inactive) with SK-MEL-28; 3.41 µM (inactive) with UACC-257; 2.2 µM (inactive) in the assay on SF-539; 7.57 µM (inactive) in the assay on DU-145; 1.33 µM (inactive) in the assay on CCRF-CEM. Besides, the GI50 with NCI-H522 is 2.22 µM (inactive); in the assay on HCT-116, 5.13 µM (inactive); with BT-549, 14.3 µM (inactive); with PC-3 it was 4.84 µM (inactive); in the assay on RPMI-8226, 1.02 µM (active); with HOP-92, 3.23 µM (inactive). For the same compound, the GI50 in the assay on TK-10 is 4.42 µM (inactive); in the assay on OVCAR-5 it was 14.3 µM (inactive); in the assay on RXF 393, 6.04 µM (inactive); in the assay on SN12C, 6.27 µM (inactive); in the assay with U-251, 3.71 µM (inactive); in the assay on COLO 205, 18.1 µM (inactive). The GI50 in the assay with SR was 12.5 µM (inactive).

Consider `COC(=O)C(CCC1CC(OC)N(C(=O)OCc2ccccc2)C1)/N=C/c1ccccc1` (stereo not drawn), for which the GI50 is 54.7 µM (inactive) in the assay with M14; > 100 µM (inactive) in the assay with SK-MEL-28; 31.2 µM (inactive) in the assay with UACC-257; > 100 µM (inactive) with SF-539; > 100 µM (inactive) with DU-145; 41.9 µM (inactive) in the assay on CCRF-CEM. Also, the GI50 was 30.6 µM (inactive) with NCI-H522; 55.3 µM (inactive) in the assay on HCT-116; > 100 µM (inactive) in the assay with BT-549; 45.1 µM (inactive) in the assay on PC-3; 27.6 µM (inactive) in the assay with RPMI-8226; 59.4 µM (inactive) in the assay on HOP-92. Besides, the GI50 was 98.6 µM (inactive) in the assay with TK-10; > 100 µM (inactive) in the assay with OVCAR-5; > 100 µM (inactive) with RXF 393; > 100 µM (inactive) in the assay with SN12C; > 100 µM (inactive) with U-251; 29.3 µM (inactive) in the assay on COLO 205. Moreover, the GI50 in the assay on SR is 30.5 µM (inactive).

Consider `Clc1ccc(Cn2cc(/C=N/n3cnnc3)c3ccccc32)cc1`, for which the GI50 is 57 µM (inactive) in the assay with M14; > 100 µM (inactive) in the assay on SK-MEL-28; 46.5 µM (inactive) in the assay on UACC-257; 40.5 µM (inactive) in the assay with SF-539; > 100 µM (inactive) in the assay on DU-145; 73.6 µM (inactive) with CCRF-CEM. Besides, the GI50 in the assay with NCI-H522 was 23.2 µM (inactive); with HCT-116, 31.8 µM (inactive); in the assay with BT-549, 29.3 µM (inactive); in the assay with PC-3, 52.1 µM (inactive); in the assay with RPMI-8226, 28.1 µM (inactive); in the assay on HOP-92 it was 14.6 µM (inactive). For the same compound, the GI50 with TK-10 was 4.81 µM (inactive); in the assay on OVCAR-5, 11.7 µM (inactive); with RXF 393, 16.4 µM (inactive); with SN12C, 45.9 µM (inactive); in the assay on U-251, 37.8 µM (inactive); in the assay with COLO 205, 18.5 µM (inactive). Besides, the GI50 in the assay with SR is 39.9 µM (inactive).

`CN1N(c2ccccc2)C(=O)C2=NC=C(C(=O)c3ccccc3)C(=N)C21C` (stereo not drawn): the GI50 in the assay on M14, in the assay on SK-MEL-28, with UACC-257, with SF-539, in the assay with DU-145 and with CCRF-CEM was > 100 µM (inactive) in each case. Moreover, the GI50 in the assay with NCI-H522, with HCT-116, in the assay on BT-549, in the assay with PC-3, in the assay with RPMI-8226 and with HOP-92 was > 100 µM (inactive) throughout. The GI50 in the assay with TK-10, with OVCAR-5, with RXF 393, with SN12C, in the assay on U-251 and with COLO 205 was > 100 µM (inactive) throughout. Further, the GI50 in the assay on SR is > 100 µM (inactive).

Consider `COc1ccc2nc3c([N+](=O)[O-])ccc4c3c(c2c1)N(CCCN(C)C)C(=S)N4CCCN(C)C`, for which the GI50 was 4 µM (inactive) in the assay with M14; 18.1 µM (inactive) with SK-MEL-28; 6.12 µM (inactive) with UACC-257; 4 µM (inactive) in the assay with SF-539; 5.16 µM (inactive) in the assay with DU-145; 4.98 µM (inactive) in the assay with CCRF-CEM. For the same compound, the GI50 with NCI-H522 is 1.53 µM (inactive); with HCT-116 it was 2.1 µM (inactive); with BT-549 it was 11.8 µM (inactive); in the assay with PC-3 it was 3.73 µM (inactive); with RPMI-8226, 5.51 µM (inactive); with HOP-92, 4.79 µM (inactive). For the same compound, the GI50 in the assay on TK-10 was 7.4 µM (inactive); in the assay with OVCAR-5 it was 14.6 µM (inactive); with RXF 393, 9.53 µM (inactive); with SN12C, 5.11 µM (inactive); in the assay on U-251, 6.37 µM (inactive); with COLO 205, 1.54 µM (inactive). Besides, the GI50 in the assay on SR is 1.72 µM (inactive).

For the compound `O=c1[nH]c2ccc(C(F)(F)F)cc2nc1-c1ccccc1`, the GI50 in the assay with M14, in the assay with SK-MEL-28, in the assay on UACC-257, in the assay with SF-539, in the assay with DU-145 and with CCRF-CEM was > 100 µM (inactive) throughout. Besides, the GI50 with NCI-H522, in the assay on HCT-116, in the assay on BT-549, in the assay on PC-3, in the assay with RPMI-8226 and in the assay with HOP-92 was > 100 µM (inactive) each time. Moreover, the GI50 in the assay with TK-10 was > 100 µM (inactive); in the assay with OVCAR-5 it was > 100 µM (inactive); in the assay with RXF 393 it was > 100 µM (inactive); in the assay with SN12C, > 100 µM (inactive); with COLO 205, > 100 µM (inactive); with SR it was 88.3 µM (inactive).
